The values that follow come from patent publication US4715994A, “Novel antibacterial agents and potentiators of carbapenem antibiotics” (Merck & Co., Inc., priority 1986, dated 1987).

For the experiment, the target named is T1, dehydropeptidase-I (renal dipeptidase, EC 3.4.13.11) (Sus scrofa, UniProt P22412).
T1 construct: isolated from hog kidneys; from tissue; host or cells: hog kidney, solubilized and lyophilized enzyme preparation
T1 sequence (P22412 17-409): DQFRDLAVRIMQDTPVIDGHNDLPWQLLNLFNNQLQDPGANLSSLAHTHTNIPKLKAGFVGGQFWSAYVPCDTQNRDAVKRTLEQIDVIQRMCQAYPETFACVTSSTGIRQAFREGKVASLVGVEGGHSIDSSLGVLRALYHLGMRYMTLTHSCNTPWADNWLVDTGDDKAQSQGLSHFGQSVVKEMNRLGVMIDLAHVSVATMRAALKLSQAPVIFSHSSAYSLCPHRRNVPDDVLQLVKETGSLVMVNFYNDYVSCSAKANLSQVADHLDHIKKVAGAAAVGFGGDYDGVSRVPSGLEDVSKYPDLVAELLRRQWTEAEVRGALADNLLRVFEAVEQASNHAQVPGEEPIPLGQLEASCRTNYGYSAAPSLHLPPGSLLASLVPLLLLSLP
Nature of the experiment: Renal dehydropeptidase I inhibition (hydrolysis of glycyldehydrophenylalanine). Format: biochemical, hog. The method, then:
This measured the ability of compounds to inhibit hydrolysis of glycyldehydrophenylalanine (GDP) by a solubilized preparation of […] isolated from hog kidneys. The procedure is as follows: to a 1 ml system containing 50 mM "MOPS" (3-(N-morpholino)propanesulfonic acid) buffer, pH 7.1, is added 5 μg of lyophilized enzyme, and the test compound at a final concentration of 0.1 mM. After a five minute incubation at 37° C., GDP is added to a final concentration of 0.05 mM. […] Inhibition of the enzyme is gauged by comparison to a standard run containing no inhibitor and is expressed as the inhibitor binding constant, Ki.

[1] abbreviates: read-out: RENAL DEHYDROPEPTIDASE I INHIBITION Ki.

Read-outs that look alike come from different tables or passages of the source.

In general, Ki refers to a dissociation constant, usually derived from enzyme kinetics or from competition with a known ligand. Regarding `CC(N)P(=O)(O)CC(CCCc1ccncc1)C(=O)O` (stereo not drawn) [DL, R2 4-pyridylpropyl, 1-Aminoethyl-[2-carboxy-5-(4-pyridyl)-1-n-pentyl]-phosphinic acid], the inhibition constant (Ki) under setting [1] was found to be 12 nM. Compound `CC(CP(=O)(O)[C@@H](C)N)C(=O)O` (stereo partly drawn) [D, R2 methyl, R3 H, 1-D-Aminoethyl-(2-carboxy-1-propyl)phosphinic acid] gave an inhibition constant (Ki) of 140 nM. As to `CC(N)P(=O)(O)C/C(=C/CCc1ccccc1)C(=O)O` (stereo not drawn) [DL, R5 phenethyl, E], under setting [1], the inhibition constant (Ki) was found to be 7 nM. Consider `CC(CP(=O)(O)C(C)N)C(=O)O` (stereo not drawn) [DL, R2 methyl, R3 H, 1-Aminoethyl-(2-carboxy-1-propyl)phosphinic acid], for which affinity was put at a Ki of 10 nM.

On to `CCCCCC=C(CP(=O)(O)C(C)N)C(=O)O` (racemic) [DL, R5 n-pentyl, (E, Z isomers), 1-Aminoethyl-(2-carboxy-oct-2-enyl)phosphinic acid (E/Z mixture)], for which the Ki under setting [1] is 5.8 nM. `CC(CP(=O)(O)[C@H](C)N)C(=O)O` (stereo partly drawn) [L, R2 methyl, 1-L-Aminoethyl-(2-carboxy-1-propyl)phosphinic acid]: the affinity, expressed as Ki, was 10 nM.

With `C[C@@H](N)P(=O)(O)CC(CCCc1ccccc1)C(=O)O` (some centres unmarked) [D, R2 phenylpropyl], under setting [1], the Ki turned out to be 1000 nM.

For the compound `C=C(CP(=O)(O)[C@@H](C)N)C(=O)O` [D, R5 H], the Ki turned out to be 230 nM. For `CC(N)P(=O)(O)C/C(=C\CCc1ccccc1)C(=O)O` (stereo not drawn) [DL, R5 phenethyl, Z, 1-Aminoethyl-(2-carboxy-5-phenyloct-2-enyl)phosphinic acid (E and Z isomers)], the Ki under setting [1] amounted to 16 nM.

The compound `C[C@H](N)P(=O)(O)CC(CCCc1ccccc1)C(=O)O` (some centres unmarked) [L, R2 phenylpropyl] had an inhibition constant Ki of 27 nM. Still for that read-out and setting: with `C=C(CP(=O)(O)[C@H](C)N)C(=O)O` [L, R5 H] the figure was 27 nM.
